Laboratory results reported in patent US6911432B2, “Drugs, foods or drinks with the use of algae-derived physiologically active substances” (priority 1997, dated 2005).

Experiments:
RAW 264.7 cells = assay: NO production induced by LPS, NO2- concentration in medium; format: cell-based, mouse; conditions: for inhibition of NO production (in words): RAW264.7, aqueous 100 mM solution used as sample
Description: (1) RAW 264.7 cells (ATCC TIB 71) were suspended in phenol red-free Dulbecco's modified Eagle's medium containing 10% fetal bovine serum (manufactured by Gibco) and 2 mM L-glutamine (manufactured by Life Technologies Oriental, 25030-149) at a concentration of 3×10^5 cells/ml, and 500 μl portions thereof were seeded to respective wells of a 48-well microtiter plate and incubated at 37° C. for 12 hours in the presence of 5% CO2. To each well were added 10 μl of 25 μg/ml lipopolysaccharide (LPS, manufactured by Sigma, L-2012) and 10 μl of aqueous 5000, 1500, 500, 150 or 50 μM agarobiose or neoagarobiose (manufactured by Sigma, G4410) solution, and the plate was incubated for additional 12 hours. Then, concentration of NO2^− produced by oxidation of NO in the medium was measured. As control groups, a group to which LPS was not added and a group to which agarobiose or neoagarobiose was not added were provided.
After incubating as described above, 100 μl of 4% Greece reagent (manufactured by Sigma, G4410) was added to 100 μl of the medium, and the mixture was allowed to stand for 15 minutes at room temperature. Then, the absorbance at 490 nm was measured. NO2^− concentration in the medium was calculated with reference to a calibration curve prepared by using NaNO2 at given concentrations dissolved in the same medium as that described above. All the measurements were carried out in triplicate.
(2) A suspension of 5 g of commercially available agar (Ina agar type S-7, manufactured by Ina Shokuhin Kogyo) in 45 ml of 0.1 N HCl was treated at 95° C. for 13 minutes. After cooling to room temperature, the suspension was neutralized with NaOH and filtered through 0.22 μm MILLEX-GP filter (manufactured by Milipore, SLGPR25LS). […] Namely, 10 μl of 25 μg/ml LPS and 10 μl of a 20-fold dilution of the sample mentioned above were added to wells of a 48 well microtiter plate containing RAW264.7 cells which had been incubated in the wells. The measurement was carried out with the culture medium. As control groups, a group to which LPS was not added, a group to which a sample was not added and a group to which 2.5 mM citric acid was added were provided. All the measurement were carried out in duplicate.

HL-60 cells [1] = assay: viable cell count with Trypan Blue under a microscope; format: cell-based, human; conditions: final concentration 250 μM or 125 μM
Description: Agarobiose, agarotetraose, agarohexaose and agarooctaose (hereinafter, sometimes, these oligosuccharaides are referred to as agarooligosaccharides) obtained in Example 5 were dissolved in water at a concentration of 2.5 mM or 1.25 mM separately, and were sterilized by filtration. HL-60 cells were suspended in RPMI 1640 medium containing 10% fetal bovine serum at a concentration of 2.5×10^5 cells/4.5 ml and to this suspension was added 0.5 ml of each of the oligosaccharide solutions. The resultant mixture were incubated with 5% CO2 at 37° C. for 24 hours or 48 hours. A part of the cell culture was taken up, followed by addition of Trypan Blue thereto and observing under a microscope to count the number of viable cells.
That is, FIG. 14 illustrates the relation between the incubation time and the number of viable cells when HL-60 cells were cultured with addition of one of the oligosaccharides at the final concentration of 250 μM. FIG. 15 illustrates the relation between the incubation time and the number of viable cells when HL-60 cells were cultured with addition of one of the oligosaccharides at the final concentration of 125 μM. In FIGS. 14 and 15, the horizontal axes represent the incubation time (hrs.) and the vertical axes represent the number of viable cells (× 10^5/5 ml). The closed circle (●) represents the addition of water (control), the open diamond (⋄) represents the addition of agarobiose, the open circle (◯) represents the addition of agarotetraose, the open triangle (Δ) represents the addition of agarohexaose and the open square (□) represents the addition of agarooctaose.

HL-60 cells [2] = assay: antiproliferation assay, MTT method, absorbance at 590 nm; format: cell-based, human; conditions: for antiproliferation activity against HL-60 cells (in words): preparations and fractions, compared with control to which water was added
HL-60 cells [3] = assay: apoptosis-inducing assay, cell morphology under an optical microscope; format: cell-based, human
Description: Human promyelocytic leukemia cell HL-60 (ATCC CCL-240) was incubated at 37° C. in RPMI 1640 medium (manufactured by Gibco) supplemented with 10% of fetal bovine serum (JRH Bioscience) which had been treated at 56° C. for 30 minutes, and suspended in the same medium at a concentration of 500 cells/90 μl. Each 90 μl portion of the suspension was distributed into each well of a 96 well plate (manufactured by Falcon). To the suspension in each well was added 10 μl of the above-mentioned acid decomposition solution, a 10-fold dilution of the solution or water, and incubated with 5% CO2 at 37° C. After 24 hour and 48 hour from the initiation of the incubation, the cell morphology was observed under an optical microscope. Then, according to the MTT method described in “Apoptosis Jikken Protocol” (Syuzyun-sha, Tanuma, Seiichi ed., pp. 156 (1994)), 5 mg/ml of 3-(4,5-dimethylthiazole-2-yl)-2,5-diphenyltetrazolium bromide (manufactured by Sigma) and 10 μl of phosphate buffered saline solution were added to the culture and the incubation was continued for additional 4 hours. Then, 100 μl of 2-propanol containing 0.04 N hydrochloric acid was added to the culture, and the mixture was thoroughly stirred. An absorbance at 590 nm was measured and the number of viable cells was calculated from the absorbance measured for each of the wells, which was compared each other.
Each elution peak was fractionated, collected, evaporated to dryness under reduced pressure and then dissolved in 300 μl of water. Each fraction was sterilized by filtration and its 10 μl portion was placed in a well of a 96 well microtiter plate. Then, 90 μl of RPMI 1640 medium (manufactured by Nissui) containing 10% fetal bovine serum (manufactured by Gibco) and 5,000 HL-60 cells (ATCC CCL-240) was added thereto, followed by incubation at 37° C. for 48 hours with 5% CO2. The cell morphology was observed under an optical microscope. Then, 5 mg/ml 3-(4,5-dimethylthiazole-2-yl)-2,5-diphenyltetrazolium bromide and 10 μl of phosphate buffered saline solution were added thereto and the incubation was continued for additional 4 hours. To the culture was added 100 μl of 2-propanol containing 0.04 N hydrochloric acid and the resultant mixture was thoroughly stirred. The absorbance at 590 nm was measured to determine a cell proliferation rate.

[4] = test system: lipid peroxide radical production; assay: inhibition of lipid peroxide radical production (tert-butyl hydroperoxide, bacterial growth readout); format: cell-based, Staphylococcus aureus 3A; set-up: key to growth of the bacterium (activity of inhibiting lipid peroxide radical production): + represents the sample in which the growth of the bacterium was observed; −represents the sample in which the growth of the bacterium was not observed
Description: Staphylococcus aureus 3A (National Collection Of Type Culture, NCTC 8319) was inoculated into 5 ml of brain heart infusion medium (manufactured by Difco, 0037-17-8) and cultured at 37° C. overnight. The bacterial cells were collected by centrifugation, washed with phosphate buffered saline 3 times and then suspended in phosphate buffered saline at a concentration of 1×10^7 colony forming units/ml. A mixture of 100 μl of the cell suspension, 100 μl of an aqueous sample solution, 100 μl of aqueous 1 mg/ml methemoglobin (manufactured by Sigma M9250) solution, 600 μl of phosphated buffered saline and 100 μl of aqueous 50 mM tert-butyl hydroperoxide (manufactured by Katayama Kagaku, 03-4990) solution were reacted at 37° C. for 30 minutes. To the reaction mixture was added 1 ml of 2×NMP medium [prepared by dissolving 8 g of nutrient broth (manufactured by Difco, 0003-01-6), 5 g of trypton (manufactured by Difco, 0123-17-3), 5 g of NaCl, 10 g of mannitol (manufactured by Nacalai Tesque, 213-03) and 0.035 g of phenol red (manufactured by Nacalai Tesque, 268-07) in distilled water to make the volume up to 500 ml. The pH was adjusted to 7.5 with NaOH and then the mixture was sterilized by filtration] to stop the reaction. The resultant mixture was diluted every 3-folds with NMP medium (prepared by diluting 2×NMP medium 2-folds with sterilized water) to prepare 12 serial dilutions and 160 μl of each dilution was placed in each well of a 96-well microtiter plate. The plate was incubated at 37° C. overnight.
In Table 14, + represents the sample in which the growth of the bacterium was observed, and −represents the sample in which the growth of the bacterium was not observed. The concentration shown in the uppermost line of the table is that of the sample in the reaction mixture in which the sample was reacted with tert-butyl hydroperoxide and the bacterial cells at 37° C. for 30 minutes.

O=C[C@H](O)[C@H]1OC[C@@H](O)[C@@H]1O [3,6-anhydro-D-galactose]
inhibition of NO production (in words) (RAW 264.7 cells): inhibited NO production

agarooctaose
apoptosis corpuscles (HL-60 cells [1]): apoptosis corpuscles were observed | number of viable cells as compared with the group to which water was added (HL-60 cells [1]; 24 hours or 48 hours): decreased

O=C[C@@H](O)[C@@H]1OC[C@H](O)[C@H]1O [3,6-anhydro-L-galactose]
absorbance at 590 nm relative to that of the control group to which water was added (HL-60 cells [2]; HL-60, final concentration of 1 mM): less than one-half | apoptosis corpuscles (HL-60 cells [3]; final concentration of 1 mM): apoptosis corpuscles were observed

OC[C@H]1OC(O)[C@H](O)[C@@H](O[C@@H]2O[C@H]3CO[C@@H]([C@@H]2O)[C@@H]3O)[C@H]1O (stereo partly drawn) [neoagarobiose, reference compound]
inhibition of NO production induced by LPS (in words) (RAW 264.7 cells; RAW 264.7, 10 μl of 5000 to 50 μM solution per 500 μl well, 12 hours): did not

O=C[C@H](O)[C@@H](O)[C@@H](O)[C@H](O)CO [Galactose, galactose, reference compound]
growth of the bacterium (activity of inhibiting lipid peroxide radical production) ([4]; 0.1 mM sample in the reaction mixture): − | growth of the bacterium (activity of inhibiting lipid peroxide radical production) ([4]; 1 mM sample in the reaction mixture): − | inhibition of NO production (in words) (RAW 264.7 cells): did not

CO[C@H](C=O)[C@@H]1OC[C@H](O)[C@H]1O[C@@H]1O[C@H](CO)[C@H](O)[C@H](O)[C@H]1O [β-D-galactopyranosyl-(1→4)-3,6-anhydro-2-O-methyl-L-galactose]
antiproliferation activity against HL-60 cells (in words) (HL-60 cells [2]): strong antiproliferation activity | antiproliferation activity against HL-60 cells (in words) (HL-60 cells [2]; listed as group 3): an antiproliferation activity was observed

O=C[C@H](O)[C@H]1OC[C@@H](O)[C@@H]1O[C@@H]1O[C@H](CO)[C@H](OS(=O)(=O)O)[C@H](O)[C@H]1O [κ-carabiose, β-D-galactopyranosyl-4-sulfate-(1→4)-3,6-anhydro-D-galactose]
cell proliferation suppressed as compared with the control group (HL-60 cells [2]; HL-60, κ-carabiose at 156 μM): about 70% | antiproliferation activity against HL-60 cells (in words) (HL-60 cells [2]): cell proliferation was inhibited | apoptosis corpuscles under an optical microscope (HL-60 cells [3]; 156 μM): apoptosis corpuscles were observed | apoptosis-inducing activity (apoptosis corpuscles, in words) (HL-60 cells [3]; preparations and fractions): apoptosis corpuscles were observed
